Measured values reported in ChEMBL document CHEMBL5120922, “Discovery, Optimization, and Evaluation of Potent and Selective PI3Kδ-γ Dual Inhibitors for the Treatment of B-cell Malignancies” (J Med Chem, 2022).
Activity calls are given as the source filed them. No cut-off for these calls is given here.

Key:
DOHH-2 [1] = test: Antiproliferative activity against human DOHH-2 cells assessed as cell growth inhibition measured after 72 hrs by MTT assay; format: functional, cell-based; conditions: DOHH-2, 72 h
SU-DHL-6 [2] = test: Antiproliferative activity against human SU-DHL-6 cells assessed as cell growth inhibition measured after 72 hrs by MTT assay; format: functional, cell-based; conditions: SU-DHL-6, 72 h
[3] = Cmax in Sprague-Dawley rat at 5 mg/kg, po measured upto 24 hrs by LC-MS/MS analysis; format: ADME, organism-based; parameters: dose 5 mg/kg, time < 24 hrs, route po; conditions: in vivo
[4] = Cmax in Sprague-Dawley rat at 2 mg/kg, iv measured upto 24 hrs by LC-MS/MS analysis; format: ADME, organism-based; parameters: time < 24 hrs, dose 2 mg/kg, route iv; conditions: in vivo
[5] = Cmax in Sprague-Dawley rat at 10 mg/kg, po measured upto 24 hrs by LC-MS/MS analysis; format: ADME, organism-based; parameters: dose 10 mg/kg, time < 24 hrs, route po; conditions: in vivo
[6] = Tmax in Sprague-Dawley rat at 5 mg/kg, po measured upto 24 hrs by LC-MS/MS analysis; format: ADME, organism-based; conditions: in vivo
[7] = Tmax in Sprague-Dawley rat at 10 mg/kg, po measured upto 24 hrs by LC-MS/MS analysis; format: ADME, organism-based; conditions: in vivo
[8] = AUC(0 to t) in Sprague-Dawley rat at 5 mg/kg, iv measured upto 24 hrs by LC-MS/MS analysis; format: ADME, organism-based; parameters: time < 24 hrs, dose 5 mg/kg, route iv; conditions: in vivo
[9] = AUC(0 to t) in Sprague-Dawley rat at 10 mg/kg, po measured upto 24 hrs by LC-MS/MS analysis; format: ADME, organism-based; parameters: dose 10 mg/kg, time < 24 hrs, route po; conditions: in vivo
[10] = AUC(0 to t) in Sprague-Dawley rat at 2 mg/kg, iv measured upto 24 hrs by LC-MS/MS analysis; format: ADME, organism-based; parameters: time < 24 hrs, dose 2 mg/kg, route iv; conditions: in vivo
[11] = Half life in Sprague-Dawley rat at 5 mg/kg, iv measured upto 24 hrs by LC-MS/MS analysis; format: ADME, organism-based; conditions: in vivo
[12] = Half life in Sprague-Dawley rat at 10 mg/kg, po measured upto 24 hrs by LC-MS/MS analysis; format: ADME, organism-based; conditions: in vivo
[13] = Half life in Sprague-Dawley rat at 2 mg/kg, iv measured upto 24 hrs by LC-MS/MS analysis; format: ADME, organism-based; conditions: in vivo
[14] = Clearance in Sprague-Dawley rat at 5 mg/kg, po measured upto 24 hrs by LC-MS/MS analysis; format: ADME, organism-based; conditions: in vivo
[15] = Clearance in Sprague-Dawley rat at 2 mg/kg, iv measured upto 24 hrs by LC-MS/MS analysis; format: ADME, organism-based; conditions: in vivo
[16] = Oral bioavailability in Sprague-Dawley rat at 10 mg/kg measured upto 24 hrs by LC-MS/MS analysis; format: ADME, organism-based; conditions: in vivo
SU-DHL-6 [17] = test: Induction of cell cycle arrest in human SU-DHL-6 cells assessed as accumulation of cells at S phase at 0.5 uM incubated for 24 hrs in presence of ibrutinib by PI staining based flow cytometry analysis (reference value: 24.18 %); format: functional
DOHH-2 [18] = test: Induction of cell cycle arrest in human DOHH-2 cells assessed as accumulation of cells at G0/G1 phase at 0.5 uM incubated for 24 hrs by PI staining based flow cytometry analysis (reference value: 23.47 %); format: functional
DOHH-2 [19] = test: Induction of cell cycle arrest in human DOHH-2 cells assessed as accumulation of cells at G0/G1 phase at 0.5 uM incubated for 24 hrs in presence of ibrutinib by PI staining based flow cytometry analysis (reference value: 23.47 %); format: functional
DOHH-2 [20] = test: Induction of cell cycle arrest in human DOHH-2 cells assessed as accumulation of cells at G2/M phase at 0.5 uM incubated for 24 hrs in presence of ibrutinib by PI staining based flow cytometry analysis (reference value: 21.42 %); format: functional
DOHH-2 [21] = test: Induction of cell cycle arrest in human DOHH-2 cells assessed as accumulation of cells at G2/M phase at 0.5 uM incubated for 24 hrs by PI staining based flow cytometry analysis (reference value: 21.42 %); format: functional
SU-DHL-6 [22] = test: Induction of apoptosis in human SU-DHL-6 cells assessed as early apoptotic cells at 1.5 uM incubated for 48 hrs by annexin V-FITC and PI staining based flow cytometry analysis (reference value: 8.81 %); format: functional
SU-DHL-6 [23] = test: Induction of apoptosis in human SU-DHL-6 cells assessed as necrotic cells at 1.5 uM incubated for 48 hrs by annexin V-FITC and PI staining based flow cytometry analysis (reference value: 0.32%); format: functional
SU-DHL-6 [24] = test: Induction of apoptosis in human SU-DHL-6 cells assessed as early apoptotic cells at 1.5 uM incubated for 48 hrs in presence of ibrutinib by annexin V-FITC and PI staining based flow cytometry analysis (reference value: 8.81 %); format: functional
DOHH-2 [25] = test: Induction of apoptosis in human DOHH-2 cells assessed as early apoptotic cells at 2 uM incubated for 48 hrs by annexin V-FITC and PI staining based flow cytometry analysis (reference value: 2.09 %); format: functional
DOHH-2 [26] = test: Induction of apoptosis in human DOHH-2 cells assessed as late apoptotic cells at 2 uM incubated for 48 hrs by annexin V-FITC and PI staining based flow cytometry analysis (reference value: 2.20 %); format: functional
DOHH-2 [27] = test: Induction of apoptosis in human DOHH-2 cells assessed as necrotic cells at 2 uM incubated for 48 hrs by annexin V-FITC and PI staining based flow cytometry analysis (Rvb =0.29 %); format: functional
DOHH-2 [28] = test: Induction of apoptosis in human DOHH-2 cells assessed as early apoptotic cells at 2 uM incubated for 48 hrs in presence of ibrutinib by annexin V-FITC and PI staining based flow cytometry analysis (reference value: 2.09 %); format: functional
DOHH-2 [29] = test: Induction of apoptosis in human DOHH-2 cells assessed as necrotic cells at 2 uM incubated for 48 hrs in presence of ibrutinib by annexin V-FITC and PI staining based flow cytometry analysis (Rvb =0.29 %); format: functional
Homo sapiens [30] = organism: Homo sapiens; test: Selectivity ratio of IC50 for N-terminal His6-tagged recombinant full length human PI3Kalpha expressed in baculovirus infected Sf21 insect cells to IC50 for N-terminal His6-tagged recombinant full length human PI3Kgamma expressed in baculovirus infected Sf21 insect cells
Homo sapiens [31] = organism: Homo sapiens; test: Selectivity ratio of IC50 for N-terminal His6-tagged recombinant full length human PI3Kbeta expressed in baculovirus infected Sf21 insect cells to IC50 for N-terminal His6-tagged recombinant full length human PI3Kgamma expressed in baculovirus infected Sf21 insect cells
[32] = Selectivity ratio of IC50 for human 786-O cells over expressing PI3Kbeta to IC50 for human SU-DHL-6 cells; format: functional
[33] = Selectivity ratio of IC50 for human SKOV-3 cells over expressing PI3Kalpha to IC50 for human SUDHL-6 cells; format: functional
SU-DHL-6 [34] = test: Antitumor activity against human SU-DHL-6 cells xenografted in NOD/SCID mouse assessed as tumor growth inhibition at 10 mg/kg, po measured every 2 days in presence of ibrutinib; format: functional; conditions: SU-DHL-6, 48 h, time 2 day, read-out: TGI
SU-DHL-6 [35] = test: Antitumor activity against human SU-DHL-6 cells xenografted in NOD/SCID mouse assessed as reduction in tumor weight at 10 mg/kg, po measured every 2 days in presence of ibrutinib; format: functional, organism-based; conditions: time 2.0 day
[36] = biological target: Phosphatidylinositol 4,5-bisphosphate 3-kinase catalytic subunit gamma isoform (Homo sapiens, UniProt P48736); test: Inhibition of N-terminal His6-tagged recombinant full length human PI3Kgamma expressed in baculovirus infected Sf21 insect cells incubated for 30 mins by HTRF assay
Sequence of Phosphatidylinositol 4,5-bisphosphate 3-kinase catalytic subunit gamma isoform (P48736 whole entry, canonical isoform): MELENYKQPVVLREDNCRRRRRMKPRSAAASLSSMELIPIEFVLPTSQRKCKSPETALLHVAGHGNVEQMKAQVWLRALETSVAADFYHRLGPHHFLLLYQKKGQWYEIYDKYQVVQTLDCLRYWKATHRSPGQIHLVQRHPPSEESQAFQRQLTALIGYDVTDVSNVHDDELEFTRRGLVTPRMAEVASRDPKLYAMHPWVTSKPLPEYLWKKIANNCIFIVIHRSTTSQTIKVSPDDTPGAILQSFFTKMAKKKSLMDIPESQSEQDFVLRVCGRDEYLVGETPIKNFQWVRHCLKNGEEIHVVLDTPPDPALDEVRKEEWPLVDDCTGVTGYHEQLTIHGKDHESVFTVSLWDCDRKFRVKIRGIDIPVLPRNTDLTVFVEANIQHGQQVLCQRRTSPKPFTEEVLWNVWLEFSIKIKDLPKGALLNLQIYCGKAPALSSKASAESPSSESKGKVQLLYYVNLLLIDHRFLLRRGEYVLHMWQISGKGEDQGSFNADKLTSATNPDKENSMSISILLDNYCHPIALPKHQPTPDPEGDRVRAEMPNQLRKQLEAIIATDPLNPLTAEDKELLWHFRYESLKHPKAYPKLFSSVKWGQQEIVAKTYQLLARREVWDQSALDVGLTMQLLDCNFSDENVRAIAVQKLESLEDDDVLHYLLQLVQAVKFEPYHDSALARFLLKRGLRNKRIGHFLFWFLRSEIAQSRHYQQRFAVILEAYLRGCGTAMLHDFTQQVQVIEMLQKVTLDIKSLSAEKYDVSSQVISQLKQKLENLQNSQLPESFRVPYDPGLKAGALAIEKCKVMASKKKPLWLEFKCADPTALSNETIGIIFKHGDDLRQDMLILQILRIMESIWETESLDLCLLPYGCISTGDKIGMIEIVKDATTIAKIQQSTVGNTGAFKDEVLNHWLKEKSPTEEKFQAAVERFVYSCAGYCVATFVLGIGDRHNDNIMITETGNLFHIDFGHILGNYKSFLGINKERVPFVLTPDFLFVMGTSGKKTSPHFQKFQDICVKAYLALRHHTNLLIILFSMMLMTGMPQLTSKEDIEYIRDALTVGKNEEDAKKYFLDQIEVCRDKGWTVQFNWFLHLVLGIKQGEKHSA

IC50 (SU-DHL-6 [2]): 60 nM | Cmax [3]: 3640 ng/mL | Cmax [4]: 1520 ng/mL | Cmax [5]: 785 ng/mL | Tmax [6]: 3.33 h | Tmax [7]: 0.83 h | AUC(0-t) at 24 h [8]: 6810 ng·h/mL | AUC(0-t) at 24 h [9]: 2930 ng·h/mL | AUC(0-t) at 24 h [10]: 1150 ng·h/mL | half-life [11]: 2.79 h | half-life [12]: 2.4 h | half-life [13]: 0.73 h | CL/F [14]: 13.2 mL/min/kg | clearance [15]: 30.5 mL/min/kg | bioavailability [16]: 57% | IC50 [36]: 16000 nM
Compound: C[C@H]1CC[C@@H](c2nc3cccc(Cl)c3c(=O)n2-c2cccnc2)N1c1nc(N)nc(N)c1C#N
IC50 (DOHH-2 [1]): 200 nM | Activity (SU-DHL-6 [17]): 15.65% | Activity (DOHH-2 [18]): 36.44% | Activity (DOHH-2 [19]): 53.16% | Activity (DOHH-2 [20]): 20.03% | Activity (DOHH-2 [21]): 12.82% | Activity (SU-DHL-6 [22]): 17.7% | Activity (SU-DHL-6 [23]): 0.18% | Activity (SU-DHL-6 [24]): 34.5% | Activity (DOHH-2 [25]): 20.4% | Activity (DOHH-2 [26]): 17.6% | Activity (DOHH-2 [27]): 1.45% | Activity (DOHH-2 [28]): 48.9% | Activity (DOHH-2 [29]): 1.88% | Ratio IC50 (Homo sapiens [30]): 794 | Ratio IC50 (Homo sapiens [31]): 84 | Selectivity ratio [32]: 142 | Selectivity ratio [33]: 107 | inhibition in vivo at 10 mg/kg (SU-DHL-6 [34]): ≤ 81.4% | Activity (SU-DHL-6 [35]): Active
